The test system of this experiment is CD2F1 mice, P1798 lymphosarcoma sc, tumor weight T/C. As to the kind of experiment: NCI In Vivo Anticancer Drug Screen. Data for tumor model P1798 Lymphosarcoma (subcutaneous) in CD2F1 (CDF1) mice. The settings on record: endpoint: mean tumor weight, higher = larger tumour. As for the experimental part:
The antitumor activity of compounds was measured in mice bearing transplantable tumors. Survival or tumor size were measured and the results are expressed as the measurement made in the treated group (T) divided by the measurement made in the vehicle treated control group (C). The tumor model used in this assay is P1798 Lymphosarcoma (subcutaneous) in CD2F1 (CDF1) mice

[1] abbreviates: dose: 12.5 mg/kg/injection, schedule: Q01DX010 (ip), vehicle: saline.
Where [2] appears, read: dose: 25.0 mg/kg/injection, schedule: Q01DX010 (ip), vehicle: saline.
Where [3] appears, read: dose: 100.0 mg/kg/injection, schedule: Q01DX010 (ip), vehicle: saline.
Setting [4] is: dose: 200.0 mg/kg/injection, schedule: Q01DX010 (ip), vehicle: saline.
[5] abbreviates: dose: 50.0 mg/kg/injection, schedule: Q01DX010 (ip), vehicle: saline.
[6] abbreviates: dose: 6.25 mg/kg/injection, schedule: Q01DX010 (ip), vehicle: saline.
[7] abbreviates: dose: 400.0 mg/kg/injection, schedule: Q01DX010 (ip), vehicle: saline.
[8] abbreviates: dose: 6.25 mg/kg/injection, schedule: Q01DX010 (sc), vehicle: steriod suspending solution.
Where [9] appears, read: dose: 12.5 mg/kg/injection, schedule: Q01DX010 (sc), vehicle: steriod suspending solution.
The mark [10] stands for this setting: dose: 50.0 mg/kg/injection, schedule: Q01DX010 (sc), vehicle: steriod suspending solution.
[11] abbreviates: dose: 25.0 mg/kg/injection, schedule: Q01DX010 (sc), vehicle: steriod suspending solution.

Several values for one entry are separate records, joined by “and”; a condition that tells them apart may be missing. Equal values may be shown once.

`C[C@]12CCC(=O)C=C1CC[C@H]1[C@@H]3CC[C@@]4(OCC4=O)[C@@]3(C)C[C@H](O)[C@@]12F`: the T/C – broadly, the ratio of treated to control – by setting is: (dose: 10.0 mg/kg/injection, schedule: Q01DX010 (sc), vehicle: steriod suspending solution) 59 % of control; (dose: 20.0 mg/kg/injection, schedule: Q01DX010 (sc), vehicle: steriod suspending solution) 43 % of control; (dose: 40.0 mg/kg/injection, schedule: Q01DX010 (sc), vehicle: steriod suspending solution) 48 % of control; (dose: 80.0 mg/kg/injection, schedule: Q01DX010 (sc), vehicle: steriod suspending solution) 16 % of control; (dose: 160.0 mg/kg/injection, schedule: Q01DX010 (sc), vehicle: steriod suspending solution) 7 % of control; (dose: 320.0 mg/kg/injection, schedule: Q01DX010 (sc), vehicle: steriod suspending solution) 1 % of control.
As to `O=C(NCCCCC(NC(=O)OCc1ccccc1)C(=O)NCCCCCCNCCCCCCNC(=O)C(CCCCNC(=O)OCc1ccccc1)NC(=O)OCc1ccccc1)OCc1ccccc1` (centres undefined), the T/C is, setting by setting: under setting [1], 78 % of control; under setting [2], 66 % of control; under setting [3], 44 % of control and 61 % of control; under setting [4], 70 % of control.
Consider `COC1C(OC(=O)/C=C/C=C/C=C/C=C/C(=O)O)CCC2(CO2)C1C1(C)OC1CC=C(C)C` (centres undefined), for which the T/C by setting is: under setting [2], 56 % of control; under setting [5], 46 % of control; under setting [3], 28 % of control.
As to `Nc1nc2n[nH]nc2c(=O)[nH]1`, the T/C was 119 % of control (dose: 25.0 mg/kg/injection, schedule: Q01DX010 (ip), vehicle: alkali diluted with saline); 64 % of control (dose: 50.0 mg/kg/injection, schedule: Q01DX010 (ip), vehicle: alkali diluted with saline); 42 % of control and 49 % of control (dose: 100.0 mg/kg/injection, schedule: Q01DX010 (ip), vehicle: alkali diluted with saline); 15 % of control and 29 % of control (dose: 200.0 mg/kg/injection, schedule: Q01DX010 (ip), vehicle: alkali diluted with saline); 2 % of control (dose: 400.0 mg/kg/injection, schedule: Q01DX010 (ip), vehicle: alkali diluted with saline).
As to `COc1ccc2[nH]c3c(C)c4ccncc4c(C)c3c2c1`, the T/C (dose: 0.39 mg/kg/injection, schedule: Q01DX010 (ip), vehicle: saline) was 104 % of control; the T/C (dose: 0.78 mg/kg/injection, schedule: Q01DX010 (ip), vehicle: saline) is 111 % of control; the T/C (dose: 1.56 mg/kg/injection, schedule: Q01DX010 (ip), vehicle: saline) was 73 % of control; the T/C under setting [6] is 61 % of control; the T/C under setting [1] was 45 % of control; the T/C under setting [2] is 40 % of control and 42 % of control.
Take `CN(C)c1nc(N(C)C)nc(N(C)C)n1`: the T/C (dose: 18.8 mg/kg/injection, schedule: Q01DX010 (ip), vehicle: saline) is 104 % of control and 87 % of control; the T/C (dose: 75.0 mg/kg/injection, schedule: Q01DX010 (ip), vehicle: saline) is 68 % of control and 82 % of control; the T/C (dose: 150.0 mg/kg/injection, schedule: Q01DX010 (ip), vehicle: saline) is 26 % of control.
As to `COc1cc2c3c(c4ccc(OC)c(OC)c4c2cc1OC)CN1CCC[C@@H]1C3`, the T/C (dose: 1.25 mg/kg/injection, schedule: Q01DX010 (ip), vehicle: saline) was 100 % of control and 78 % of control; the T/C (dose: 5.0 mg/kg/injection, schedule: Q01DX010 (ip), vehicle: saline) is 108 % of control and 87 % of control; the T/C (dose: 10.0 mg/kg/injection, schedule: Q01DX010 (ip), vehicle: saline) was 93 % of control and 104 % of control.
For `CC(=O)NCCCCCCCCCCNC(C)=O`, the T/C was 96 % of control under setting [5], 113 % of control under setting [3], 93 % of control under setting [4] and 76 % of control under setting [7].
Take `C[C@]12CC[C@@H]3c4ccc(O)cc4CC[C@H]3[C@@H]1C[C@H](O)C2`: the T/C is 102 % of control under setting [8]; 95 % of control and 109 % of control under setting [9]; 111 % of control and 112 % of control under setting [10].
For `CCOC(N)=O`, the T/C runs as follows: (dose: 125.0 mg/kg/injection, schedule: Q01DX010 (ip), vehicle: saline) 95 % of control; (dose: 250.0 mg/kg/injection, schedule: Q01DX010 (ip), vehicle: saline) 64 % of control; (dose: 500.0 mg/kg/injection, schedule: Q01DX010 (ip), vehicle: saline) 23 % of control.
Take `CC(=O)OCC(=O)[C@@]1(O)CC[C@H]2[C@@H]3CCC4=CC(=O)[C@H](C)C[C@]4(C)[C@@]3(F)[C@@H](O)C[C@@]21C`: the T/C (dose: 3.75 mg/kg/injection, schedule: Q01DX Z (sc), vehicle: steriod suspending solution) is 94 % of control; the T/C under setting [8] was 111 % of control; the T/C (dose: 6.25 mg/kg/injection, schedule: Q02DX010 (sc), vehicle: steriod suspending solution) is 94 % of control; the T/C (dose: 7.5 mg/kg/injection, schedule: Q01DX Z (sc), vehicle: steriod suspending solution) is 111 % of control; the T/C (dose: 12.5 mg/kg/injection, schedule: Q01DX005 (sc), vehicle: steriod suspending solution) is 38 % of control; the T/C (dose: 12.5 mg/kg/injection, schedule: Q02DX010 (sc), vehicle: steriod suspending solution) is 101 % of control. Further, the T/C (dose: 15.0 mg/kg/injection, schedule: Q01DX Z (sc), vehicle: steriod suspending solution) was 74 % of control; the T/C (dose: 25.0 mg/kg/injection, schedule: Q01DX005 (sc), vehicle: steriod suspending solution) is 5 % of control; the T/C under setting [11] is 1 % of control and 2 % of control and 26 % of control; the T/C (dose: 25.0 mg/kg/injection, schedule: Q02DX010 (sc), vehicle: steriod suspending solution) was 89 % of control; the T/C (dose: 30.0 mg/kg/injection, schedule: Q01DX Z (sc), vehicle: steriod suspending solution) was 74 % of control; the T/C (dose: 50.0 mg/kg/injection, schedule: Q01DX005 (sc), vehicle: steriod suspending solution) was 2 % of control. For the same compound, the T/C is 88 % of control (dose: 60.0 mg/kg/injection, schedule: Q01DX Z (sc), vehicle: steriod suspending solution) and 1 % of control (dose: 100.0 mg/kg/injection, schedule: Q01DX005 (sc), vehicle: steriod suspending solution).
`Clc1ncnc2nc[nH]c12`: the T/C was 91 % of control (dose: 7.5 mg/kg/injection, schedule: Q01DX010 (ip), vehicle: saline); 84 % of control and 85 % of control (dose: 15.0 mg/kg/injection, schedule: Q01DX010 (ip), vehicle: saline); 102 % of control (dose: 30.0 mg/kg/injection, schedule: Q01DX010 (ip), vehicle: saline); 91 % of control (dose: 120.0 mg/kg/injection, schedule: Q01DX010 (ip), vehicle: saline).
Turning to `CCCNc1ncnc2c1cnn2C`, the T/C by setting is: (dose: 3.13 mg/kg/injection, schedule: Q01DX010 (ip), vehicle: saline) 90 % of control; under setting [6], 103 % of control; under setting [1], 86 % of control.
Take `N#CCCCCCNC(=O)CCCCC(=O)NCCCCCC#N`: the T/C under setting [3] was 85 % of control, the T/C under setting [4] was 111 % of control and the T/C under setting [7] is 87 % of control.
`CN(N=O)C(=O)NC(C=O)C(O)C(O)C(O)CO` (centres undefined): the T/C reads like this: (dose: 22.5 mg/kg/injection, schedule: Q01DX010 (ip), vehicle: saline) 43 % of control; (dose: 40.0 mg/kg/injection, schedule: Q01DX010 (ip), vehicle: saline) 97 % of control; (dose: 45.0 mg/kg/injection, schedule: Q01DX010 (ip), vehicle: saline) 53 % of control; (dose: 60.0 mg/kg/injection, schedule: Q01DX010 (ip), vehicle: saline) 64 % of control; (dose: 90.0 mg/kg/injection, schedule: Q01DX010 (ip), vehicle: saline) 24 % of control and 29 % of control.
With `c1ccc(CNc2ncnc3[nH]ncc23)cc1`, the T/C runs as follows: (dose: 16.0 mg/kg/injection, schedule: Q01DX010 (ip), vehicle: saline) 98 % of control; (dose: 32.0 mg/kg/injection, schedule: Q01DX010 (ip), vehicle: saline) 83 % of control; (dose: 64.0 mg/kg/injection, schedule: Q01DX010 (ip), vehicle: saline) 70 % of control.
Regarding `CC(CCC(C)OS(C)(=O)=O)OS(C)(=O)=O` (centres undefined), the T/C is, setting by setting: (dose: 2.0 mg/kg/injection, schedule: Q01DX010 (ip), vehicle: saline) 101 % of control; (dose: 4.0 mg/kg/injection, schedule: Q01DX010 (ip), vehicle: saline) 59 % of control and 78 % of control; (dose: 8.0 mg/kg/injection, schedule: Q01DX010 (ip), vehicle: saline) 101 % of control and 82 % of control.
For the compound `C[C@]12CC[C@@H]3c4ccc(O)cc4CC[C@H]3[C@@H]1CC[C@@H]2O`, the T/C by setting is: under setting [8], 80 % of control and 90 % of control; under setting [9], 70 % of control and 86 % of control; under setting [11], 77 % of control and 81 % of control; under setting [10], 100 % of control and 82 % of control.
